Results on one molecule are retold here after paper PMC7269033, “A composite nanocarrier to inhibit precipitation of the weakly basic drug in the gastrointestinal tract” (Drug Delivery, 2020).

In brackets after ≈: the same amount, converted by molar mass. Where two headings read alike, the source gives them in different places.

Series [1] in a line: Cellular transport studies (Papp, efflux ratio). It counts as in vitro ADME. As to conditions: human. The procedure:
The Caco-2 cell monolayer is the most widespread model for cellular transport experiments to evaluate the efflux effect of P-gp (Hunter et al., [1993]). The transepithelial electrical resistance (TEER) value of Caco-2 cell monolayer model was measured using a cell resistance meter (Millicell-ERS, Millipore, USA), and models were used for transport experiments when the TEER value exceeded […] (Andrew & Cameron, [2012]).
For apical to basolateral (AP > BL) (basolateral to apical (BL > AP)) transport experiments, 1.5 mL of Hank’s Balanced Salt Solution (HBSS) loaded with DE, DE-SMs and DE-CMs (the concentration of DE in different groups was 200 μg/mL) was added to the AP side (BL side) and 2.6 mL of blank HBSS was added to the BL side (AP side), respectively. At fixed time intervals, 400 μL aliquots were taken from the BL side (AP side) with replacement of the fresh HBSS. The samples were frozen in a refrigerator at –80 °C until HPLC analysis. The HPLC method employed an ODS C18 column (250 × 4.6 mm, 5 μm, Dikma Technologies, China) and a methanol-water (75:25, v/v) mobile phase with a flow rate of 1.0 mL/min. The detection wavelength was 316 nm and the injection volume was 20 μL. The apparent permeability coefficient (Papp) and efflux ratio (ER) were calculated as follows: (5) Papp=dQ/dt/A×C0 where dQ/dt is the steady-state appearance rate of DE on the receiver side, C0 is the initial concentration of DE on the supply side, and A is the surface area of the cell monolayer. (6) ER=Papp(BL→AP)/Papp(AP→BL) where Papp(BL→AP) is the Papp value of DE transferred from the BL side to AP side, and Papp(AP→BL) is the Papp value of DE transferred from the AP side to BL side.

Details of series [2]: method as in Chai et al., 2016. As to conditions: 37 °C, ref Chai et al., 2016, cited from earlier work.
The nature of series [3]: Cytotoxicity by MTT assay. The series is classed as cell-based. As to conditions: human, Caco-2 cells, tested concentrations 0.05 μg/mL to 200 μg/mL, read-out: cell viability. The method, then: Cytotoxicity of DE, dabigatran etexilate-loaded single micelles (DE-SMs) and DE-CMs was investigated by the MTT assay (Zhai et al., [2013]). Caco-2 cells were supplied by KeyGEN BioTECH Co., Ltd. (Nanjing, China) and maintained in medium composite of DMEM (high glucose), 20% FBS and 1% penicillin/streptomycin solution. Cells were cultured at a density of 5 × 10^4 cells/well in 96-well plates and incubated at 37 °C under 5% CO2 for 24 h. Then, the complete medium was removed and cells were further incubated with 100 μL of complete medium containing DE, DE-SMs and DE-CMs at 37 °C for 24 h, respectively. Next, the medium was replaced with 20 μL of MTT (5 mg/mL) solution and 80 μL of fresh medium. Following 4 h of incubation, the medium containing MTT was discarded and 150 μL of DMSO was added to each well to dissolve the granular crystallization. The optical density of the samples was measured at 490 nm wavelength using a microplate ELISA analyzer (Thermo Scientific, USA) (Fan et al., [2017a]). The negative control was the group of Caco-2 cells without drugs. Cell viability was calculated as follows: (4) Cell viability (%)=(1−ODnegtive control−ODsample/ODnegtive control)×100% where ODnegative control is the optical density of the negative control group, and ODsample is the optical density of the experimental group.
On the technique in general: Formazan colour is commonly taken as a measure of viable cells.

The conditions of series [4]: cited from earlier work.

With `CCCCCCOC(=O)NC(=N)c1ccc(NCc2nc3cc(C(=O)N(CCC(=O)OCC)c4ccccn4)ccc3n2C)cc1` [DE, dabigatran etexilate], the efflux ratio at 200 μg/mL in series [1] (Caco-2, Papp(BL→AP)/Papp(AP→BL), read-out: ER value (efflux ratio)) was 14.2. Moreover, in series [1] (Caco-2 monolayer, DE 200 μg/mL, read-out: Papp (AP to BL)), the Papp A→B at 200 μg/mL stood at 0.59 ± 0.055 ×10⁻⁶ cm/s. For the same molecule, the Papp B→A at 200 μg/mL in series [1] (Caco-2 monolayer, DE 200 μg/mL, read-out: Papp (BL to AP)) is 8.44 ± 0.072 ×10⁻⁶ cm/s. The figures for the solubility in series [2] (SGF) and in series [2] (SIF) were 19245 µg/mL (≈ 30.7 mM) and 3.06 µg/mL (≈ 0.00487 mM), respectively. The viability (commonly a read-out of living cells in per cent, often relative to untreated cells) at 24 h in series [3] was greater than 80%. Besides, in series [4] (after oral administration, ref Greig & Mckeage, 2014), the absolute bioavailability result was “approximately 6.5%”. Also, the oral bioavailability in series [4] (ref Wang et al., 2013) is listed as 3–7%.
